According to patent US20200289474A1, “METHODS OF TREATING PAIN WITH A THIAZOLINE ANTI-HYPERALGESIC” (priority 2019, published 2020):

Key:
OAT1 = molecular target: T1, OAT1 (Homo sapiens, UniProt Q4U2R8); test: transporter inhibition, HEK293 cells, probe accumulation; format: in vitro ADME
T1 construct: expressed in transfected cells; host or cells: HEK293 cells
T1 sequence (Q4U2R8 1-563): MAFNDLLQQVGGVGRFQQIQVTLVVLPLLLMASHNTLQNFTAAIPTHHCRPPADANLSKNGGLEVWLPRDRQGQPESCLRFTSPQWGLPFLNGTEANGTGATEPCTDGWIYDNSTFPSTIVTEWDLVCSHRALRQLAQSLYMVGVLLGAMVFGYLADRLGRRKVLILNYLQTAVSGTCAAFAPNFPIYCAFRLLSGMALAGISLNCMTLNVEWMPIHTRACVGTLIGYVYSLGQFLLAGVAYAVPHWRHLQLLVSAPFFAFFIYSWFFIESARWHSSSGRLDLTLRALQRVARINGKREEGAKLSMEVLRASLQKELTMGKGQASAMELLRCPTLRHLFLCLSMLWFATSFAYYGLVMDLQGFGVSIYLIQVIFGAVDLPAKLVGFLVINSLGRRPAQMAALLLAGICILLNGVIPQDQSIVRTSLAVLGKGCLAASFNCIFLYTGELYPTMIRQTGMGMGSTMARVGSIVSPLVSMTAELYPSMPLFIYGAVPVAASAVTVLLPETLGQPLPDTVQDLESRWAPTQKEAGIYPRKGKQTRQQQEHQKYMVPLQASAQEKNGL

[1] = rat 28-day GLP repeat dose PO study (toxicokinetics); format: in vivo
Description: A 28-day GLP repeat dose study with Compound 1 in rats was conducted with oral gavage doses of 0, 500, 1000 or 2000 mg/kg/day at a dosing volume of 10 mL/kg. The vehicle was 0.5% HPMC. There were 15 rats/sex in the control and high dose groups (5/sex for a 14-day recovery period) while the low and mid doses consisted of 10 rats/sex. Satellite groups of rats/sex/group for toxicokinetics were included.
Rats in Group 1 (Vehicle Control) were bled once at approximately 1 hour post-dose on those days.

[2] = dog single oral dose MTD study; format: in vivo; details: for Average Compound 1 Concentration in Dog Plasma: N = 2
Description: Using a pyramiding dose schedule, dose levels of 250, 350 and 500 mg/kg were administered to 2 dogs/sex (after a washout period of at least three days, the same animals were dosed with the next dose level). The dose volume was 10 mL/kg body weight. The vehicle was 0.5% aqueous HPMC.

[3] = female, rat, in vivo, po, 500 mg/kg
[4] = rat 28-day PO, Day 1, F, 1000 mg/kg
[5] = rat 28-day PO, Day 1, F, 2000 mg/kg
[6] = rat 28-day PO, Day 1, M, 500 mg/kg
[7] = rat 28-day PO, Day 1, M, 1000 mg/kg
[8] = rat 28-day PO, Day 1, M, 2000 mg/kg
[9] = rat 28-day PO, Day 14, F, 500 mg/kg
[10] = rat 28-day PO, Day 14, F, 1000 mg/kg
[11] = rat 28-day PO, Day 14, F, 2000 mg/kg
[12] = rat 28-day PO, Day 14, M, 500 mg/kg
[13] = rat 28-day PO, Day 14, M, 1000 mg/kg
[14] = rat 28-day PO, Day 14, M, 2000 mg/kg
[15] = rat 28-day PO, Day 28, F, 500 mg/kg
[16] = rat 28-day PO, Day 28, F, 1000 mg/kg
[17] = rat 28-day PO, Day 28, F, 2000 mg/kg
[18] = rat 28-day PO, Day 28, M, 500 mg/kg
[19] = rat 28-day PO, Day 28, M, 1000 mg/kg
[20] = rat 28-day PO, Day 28, M, 2000 mg/kg

CC1(C)SC(Nc2ccccc2O)=N[C@@H]1C(=O)O.Cl [Compound 1, (R)-2-(2-hydroxyphenylamino)-5,5-dimethyl-4,5-dihydrothiazole-4-carboxylic acid mono-hydrochloride]
inhibition (OAT1): does not inhibit
Cmax at 28 days ([1]; both sexes, in vivo, po, rat 28-day pivotal study, at some doses): > 100 µg/mL
Tmax at 28 days ([1]; both sexes, in vivo, po, rat 28-day study (summary)): ≤ 1 h
CL/F at 28 days ([1]; both sexes, in vivo, rat 28-day PO, read-out: overall mean CL/F (converted)): 35.2 mL/min/kg
half-life at 28 days ([1]; both sexes, in vivo, rat 28-day PO, read-out: overall mean t1/2 (converted)): 4.24 h
half-life ([1]; both sexes, rat, in vivo, po): 3 to 8 h
overall mean V/F ([1]; both, rat, in vivo, po, 28 days): 12.5 L/kg
AUC [1, 3]: 298 µg·h/mL
AUC(0-inf) [1, 3]: 299 µg·h/mL
CL/F [1, 3]: 27.8 mL/min/kg
Cmax [1, 3]: 74.8 µg/mL
Vd/F [1, 3]: 8.1 L/kg
half-life [1, 3]: 3.36 h
tmax [1, 3]: 2 h
half-life ([1]; female, rat, in vivo, po, 2000 mg/kg): 8.05 h
CL/F ([1]; male, rat, in vivo, po, 1000 mg/kg): 38.7 mL/min/kg
CL/F ([1]; male, rat, in vivo, po, 2000 mg/kg): 35.3 mL/min/kg
AUCINF [1, 4]: 794 µg·h/mL
AUCTAU [1, 4]: 788 µg·h/mL
CL/F (CLz/F) [1, 4]: 21 mL/min/kg
Cmax [1, 4]: 108 µg/mL
t1/2 [1, 4]: 3.39 h
AUCINF [1, 5]: 1324 µg·h/mL
AUCTAU [1, 5]: 1161 µg·h/mL
CL/F (CLz/F) [1, 5]: 25.2 mL/min/kg
Cmax [1, 5]: 118 µg/mL
AUCINF [1, 6]: 275 µg·h/mL
AUCTAU [1, 6]: 270 µg·h/mL
CL/F (CLz/F) [1, 6]: 30.3 mL/min/kg
Cmax [1, 6]: 55.1 µg/mL
t1/2 [1, 6]: 4.18 h
AUCINF [1, 7]: 460 µg·h/mL
AUCTAU [1, 7]: 456 µg·h/mL
CL/F (CLz/F) [1, 7]: 36.2 mL/min/kg
Cmax [1, 7]: 52.7 µg/mL
t1/2 [1, 7]: 3.46 h
AUCINF [1, 8]: 771 µg·h/mL
AUCTAU [1, 8]: 768 µg·h/mL
CL/F (CLz/F) [1, 8]: 43.2 mL/min/kg
Cmax [1, 8]: 83.1 µg/mL
t1/2 [1, 8]: 2.81 h
AUCINF [1, 9]: 225 µg·h/mL
AUCTAU [1, 9]: 223 µg·h/mL
CL/F (CLss/F) [1, 9]: 37.5 mL/min/kg
Cmax [1, 9]: 75.0 µg/mL
t1/2 [1, 9]: 4.20 h
AUCINF [1, 10]: 437 µg·h/mL
AUCTAU [1, 10]: 430 µg·h/mL
CL/F (CLss/F) [1, 10]: 38.7 mL/min/kg
Cmax [1, 10]: 96.3 µg/mL
t1/2 [1, 10]: 4.19 h
AUCINF [1, 11]: 952 µg·h/mL
AUCTAU [1, 11]: 942 µg·h/mL
CL/F (CLss/F) [1, 11]: 35.3 mL/min/kg
Cmax [1, 11]: 127 µg/mL
t1/2 [1, 11]: 3.56 h
AUCINF [1, 12]: 258 µg·h/mL
AUCTAU [1, 12]: 244 µg·h/mL
CL/F (CLss/F) [1, 12]: 34.2 mL/min/kg
Cmax [1, 12]: 45.8 µg/mL
t1/2 [1, 12]: 6.27 h
AUCINF [1, 13]: 296 µg·h/mL
AUCTAU [1, 13]: 293 µg·h/mL
Cmax [1, 13]: 51.9 µg/mL
t1/2 [1, 13]: 3.68 h
AUCINF [1, 14]: 709 µg·h/mL
AUCTAU [1, 14]: 701 µg·h/mL
Cmax [1, 14]: 75.6 µg/mL
t1/2 [1, 14]: 3.66 h
AUCINF [1, 15]: 303 µg·h/mL
AUCTAU [1, 15]: 297 µg·h/mL
CL/F (CLss/F) [1, 15]: 28 mL/min/kg
Cmax [1, 15]: 86.4 µg/mL
t1/2 [1, 15]: 4.62 h
tmax [1, 15]: 0.5 h
AUCINF [1, 16]: 741 µg·h/mL
AUCTAU [1, 16]: 736 µg·h/mL
CL/F (CLss/F) [1, 16]: 22.7 mL/min/kg
Cmax [1, 16]: 128 µg/mL
t1/2 [1, 16]: 3.20 h
AUCINF [1, 17]: 1327 µg·h/mL
AUCTAU [1, 17]: 1305 µg·h/mL
CL/F (CLss/F) [1, 17]: 25.5 mL/min/kg
Cmax [1, 17]: 139 µg/mL
t1/2 [1, 17]: 3.93 h
tmax [1, 17]: 0.5 h
AUCINF [1, 18]: 333 µg·h/mL
AUCTAU [1, 18]: 305 µg·h/mL
CL/F (CLss/F) [1, 18]: 27.3 mL/min/kg
Cmax [1, 18]: 48.6 µg/mL
t1/2 [1, 18]: 6.90 h
AUCINF [1, 19]: 337 µg·h/mL
AUCTAU [1, 19]: 334 µg·h/mL
CL/F (CLss/F) [1, 19]: 49.8 mL/min/kg
Cmax [1, 19]: 47.9 µg/mL
t1/2 [1, 19]: 3.31 h
AUCINF [1, 20]: 731 µg·h/mL
AUCTAU [1, 20]: 724 µg·h/mL
CL/F (CLss/F) [1, 20]: 46 mL/min/kg
Cmax [1, 20]: 83.6 µg/mL
t1/2 [1, 20]: 3.53 h
Average Compound 1 Concentration in Dog Plasma ([2]; 250 mg/kg PO (Dose 1; Day 1), 0.5 h, F): 28 µg/mL
Average Compound 1 Concentration in Dog Plasma ([2]; 250 mg/kg PO (Dose 1; Day 1), 0.5 h, M): 71 µg/mL
Average Compound 1 Concentration in Dog Plasma ([2]; 250 mg/kg PO (Dose 1; Day 1), 1 h, F): 54 µg/mL
Average Compound 1 Concentration in Dog Plasma ([2]; 250 mg/kg PO (Dose 1; Day 1), 1 h, M): 110 µg/mL
Average Compound 1 Concentration in Dog Plasma ([2]; 250 mg/kg PO (Dose 1; Day 1), 2 h, F): 46 µg/mL
Average Compound 1 Concentration in Dog Plasma ([2]; 250 mg/kg PO (Dose 1; Day 1), 2 h, M): 91 µg/mL
Average Compound 1 Concentration in Dog Plasma ([2]; 350 mg/kg PO (Dose 3; Day 9), 0.5 h, F): 67 µg/mL
Average Compound 1 Concentration in Dog Plasma ([2]; 350 mg/kg PO (Dose 3; Day 9), 0.5 h, M): 134 µg/mL
Average Compound 1 Concentration in Dog Plasma ([2]; 350 mg/kg PO (Dose 3; Day 9), 1 h, F): 154 µg/mL
Average Compound 1 Concentration in Dog Plasma ([2]; 350 mg/kg PO (Dose 3; Day 9), 1 h, M): 220 µg/mL
Average Compound 1 Concentration in Dog Plasma ([2]; 350 mg/kg PO (Dose 3; Day 9), 2 h, F): 119 µg/mL
Average Compound 1 Concentration in Dog Plasma ([2]; 350 mg/kg PO (Dose 3; Day 9), 2 h, M): 153 µg/mL
Average Compound 1 Concentration in Dog Plasma ([2]; 500 mg/kg PO (Dose 2; Day 4), 0.5 h, F): 87 µg/mL
Average Compound 1 Concentration in Dog Plasma ([2]; 500 mg/kg PO (Dose 2; Day 4), 0.5 h, M): 111 µg/mL
Average Compound 1 Concentration in Dog Plasma ([2]; 500 mg/kg PO (Dose 2; Day 4), 1 h, F): 136 µg/mL
Average Compound 1 Concentration in Dog Plasma ([2]; 500 mg/kg PO (Dose 2; Day 4), 1 h, M): 191 µg/mL
Average Compound 1 Concentration in Dog Plasma ([2]; 500 mg/kg PO (Dose 2; Day 4), 2 h, F): 124 µg/mL
Average Compound 1 Concentration in Dog Plasma ([2]; 500 mg/kg PO (Dose 2; Day 4), 2 h, M): 193 µg/mL
tolerability ([2]; dogs, single oral (gavage) dose of 500 mg/kg, emesis in three of the four dosed animals): not tolerated
